Results from PubChem BioAssay AID624491 (Broad Institute, 2012).

tested on: D54 ERlucT glycosylation luciferase reporter, luminescence, 24 h; assay: blockers of NLG process in reporter cells – D54 ERlucT cells, luminescence, cherry-picks, dose response (AID 624491);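 also: signal gain reflects blocked N-linked glycosylation of a luciferase reporter; actives raise luciferase signal so AC26 marks activators of the reporter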

Going from `COc1ccc(CC(=O)N/N=C/c2c(C)n(C)c3ccccc23)cc1OC` to `COc1ccc(/C=N/NC(=O)c2sccc2OCc2ccc(F)cc2)cc1OC`, the AC26 falls from 4460 nM to 1310 nM (3.4-fold).

`Cc1ccc(C(=O)NC(=C(Cl)Cl)S(=O)(=O)c2ccc(Cl)cc2)cc1` and `Cc1ccc(C(=O)NC(=C(Cl)Cl)S(=O)(=O)c2ccc(C)cc2)cc1` are within 1.5-fold of each other in AC26: 3660 nM for the first, 2550 nM for the second.

Compared with `CCN(CC)CCn1c2ccccc2c2cnc(N)c(C#N)c21`, `CCn1c2ccccc2c2cc(Nc3cc(C)nc4ncnn34)ccc21` is 11-fold lower in AC26: 750 nM for the first, 69.8 nM for the second.

Going from `O=C1C=C(c2cccs2)C[C@H](c2ccccc2)[C@H]1n1nnc([N+](=O)[O-])n1` to `Cc1cc2nnc(SCC(=O)NCc3cccs3)n2c2ccccc12`, the AC26 rises from 260 nM to 1660 nM (6.4-fold).

Going from `Nc1nc(=S)c2ncn([C@@H]3O[C@H](CO)[C@@H](O)[C@H]3O)c2[nH]1` to `CCOC(=O)c1c(C)nc2sc3c(=O)n(-c4ccc(C)cc4)cnc3c2c1-c1ccc(OC)cc1`, the AC26 falls from 368 nM to 116 nM (3.2-fold).

First: CC(C)CN(C(=O)COC(=O)CCSc1ccc(Cl)cc1)c1c(N)n(Cc2ccccc2)c(=O)[nH]c1=O
Second: CCOC(=O)COc1cccc2c(=O)n(CC(=O)NCc3ccccc3)ccc12
The AC26 of the first is 1.8-fold higher: 4450 nM for the first, 2540 nM for the second.

Compared with `COc1ccc(-c2cc3ccccc3oc2=O)cc1NC(=S)NC(=O)c1ccc2c(c1)OCCO2`, `COc1ccc(NC(=O)C2Cc3c(-c4cccc(NC(C)=O)c4)ccnc3O2)cc1OC` (stereo not given) is 1.7-fold lower in AC26: 3970 nM for the first, 2270 nM for the second.

`Cc1ccc(-c2nn3c(C)nnc3c3ccccc23)cc1S(=O)(=O)N(C)CCO` and `COc1ccc(-c2nn(C)c(=O)c3ccccc23)cc1NS(C)(=O)=O` are within 1.5-fold of each other in AC26: 4210 nM for the first, 4620 nM for the second.

`COc1cc(-c2cc(OC)c(O)c(OC)c2)cc(OC)c1O` and `COc1ccc(/C=C2\CC/C(=C\c3ccc(OC)c(OC)c3)C2=O)cc1OC` are within 1.5-fold of each other in AC26: 3600 nM for the first, 3790 nM for the second.

`COc1cc2cnc(-c3ccccc3)cc2cc1OC` and `COc1ccc(C(=O)C=Cc2ccc(OCc3ccccc3)c(OC)c2)cc1OC` are within 1.5-fold of each other in AC26: 2360 nM for the first, 2690 nM for the second.

Going from `CN(C)CCNC(=O)c1cccc2[nH]c(-c3ccncc3)nc12` to `Cc1ccc(-c2nc(NCCCN(C)C)c3ccccc3n2)cc1`, the AC26 rises from 894 nM to 5650 nM (6.3-fold).

Compared with `COc1ccc(S(=O)(=O)Nc2cc3c(cc2C(C)=O)OCO3)cc1`, `COc1ccc(NC(=O)c2ccc([N+](=O)[O-])o2)cc1` is 5.5-fold lower in AC26: 5560 nM for the first, 1020 nM for the second.

Compared with `OCCNc1c2ccccc2nc2ccccc12`, `Nc1c2ccccc2nc2ccccc12` is 2.5-fold lower in AC26: 907 nM for the first, 364 nM for the second.

Compared with `O=C(N/N=C/c1ccc(Cl)cc1)c1sccc1OCc1ccc(F)cc1`, `O=C(Nc1ccc(Cl)cn1)c1cccc(F)c1` is 83-fold higher in AC26: 83.6 nM for the first, 6980 nM for the second.

Compared with `COc1ccc2[nH]c(C(=O)N3CCN(Cc4ccccc4)CC3)cc2c1OC`, `O=C(c1ccc(Cl)c(S(=O)(=O)N2CCCCC2)c1)N1CCN(Cc2ccccc2)CC1` is 3.7-fold higher in AC26: 1130 nM for the first, 4150 nM for the second.

Compared with `Nc1ccc(C(=O)N2CCN(S(=O)(=O)c3ccc4c(c3)OCCO4)CC2)cc1[N+](=O)[O-]`, `COc1ccc(S(=O)(=O)N2CCCOC2CNC(=O)C(=O)NCCc2ccco2)cc1C` (stereo not given) is 2.4-fold higher in AC26: 3880 nM for the first, 9490 nM for the second.

Compared with `O=C(NCCc1ccccc1)c1cc(-c2ccco2)on1`, `O=C(Nc1nc2ccccc2c(=O)s1)c1ccco1` is 5.8-fold lower in AC26: 3780 nM for the first, 653 nM for the second.

Compared with `CC(=O)c1cccc(NC(=O)CSc2ncc(C(=O)Nc3ccccc3)c(=O)n2C)c1`, `CSc1cccc(NC(=O)CCCOc2cc(=O)n(C)c3ccccc23)c1` is 3.7-fold higher in AC26: 1350 nM for the first, 4940 nM for the second.

Compared with `CCCc1cc(C(=O)N/N=C/c2ccc(C)o2)c2ccccc2n1`, `Cc1cc(C(=O)N/N=C/c2c3ccccc3cc3ccccc23)n[nH]1` is 6.4-fold higher in AC26: 1040 nM for the first, 6680 nM for the second.

First: Cn1c(C(=O)OCC(=O)NCc2ccc(F)cc2)cc2occc21
Second: COc1ccc(C2=NOC(C(=O)NCc3ccc(F)cc3)C2)cc1OC (stereo not given)
The AC26 of the first is 2-fold higher: 8970 nM for the first, 4460 nM for the second.

First: Cc1ccc(CNC(=O)Cc2ccc(Br)cc2)cc1
Second: O=C(Nc1ccc(Cc2ccncc2)cc1)c1ccc([N+](=O)[O-])o1
The AC26 of the first is 5.8-fold higher: 6690 nM for the first, 1150 nM for the second.

First: Cc1[nH]nc2c1C(c1cccc(O)c1)C1=C(CC(C)(C)CC1=O)N2 (stereo not given)
Second: COc1cc(C2c3[nH]c4ccccc4c3CC3COC(=O)N32)cc(OC)c1O (stereo not given)
The AC26 of the first is 2.4-fold higher: 1870 nM for the first, 780 nM for the second.

Compared with `COc1cc2c(cc1OC)CN(c1ccc(C(F)(F)F)cn1)CC2`, `COc1cc(C(=O)N/N=C/c2cc([N+](=O)[O-])cs2)cc(OC)c1OC` is 13-fold lower in AC26: 4710 nM for the first, 349 nM for the second.

`CN1CCc2nc3sc(C#N)c(N)c3c(-c3cccs3)c2C1` and `Nc1cc2c3c(cccc3c1)C(=O)N(CCN1CCCC1)C2=O` are within 1.5-fold of each other in AC26: 261 nM for the first, 275 nM for the second.

First: O=C(COC(=O)c1ccc(NS(=O)(=O)c2cccs2)cc1O)NCc1ccccc1
Second: COC(=O)c1cc(=O)n(-c2ccccc2)c(=Nc2ccccc2)s1
The AC26 of the first is 2.2-fold lower: 4820 nM for the first, 10800 nM for the second.

Going from `O=CC1=C(c2ccccc2)Oc2ccccc2O1` to `CN(C)CCOc1nc(-c2ccccc2)nc2c1oc1ccccc12`, the AC26 falls from 10300 nM to 2700 nM (3.8-fold).

Going from `Cn1c(=O)[nH]c(=O)c2c1nc(N(CCO)Cc1ccccc1)n2CCCc1ccccc1` to `CCNC(=O)c1cc2c(=O)n3cccc(C)c3nc2n(CCc2ccccc2)c1=N`, the AC26 rises from 800 nM to 1520 nM (1.9-fold).

Compared with `CCOC(=O)c1[nH]c(C)c(C(=O)OCC(=O)NC(C)c2ccc(F)cc2)c1C` (stereo not given), `CC[C@H](C)[C@H](NC(=O)c1ccc(Cl)cc1)C(=O)OCC(=O)c1ccc2c(c1)NC(=O)CO2` is 2.1-fold higher in AC26: 3150 nM for the first, 6470 nM for the second.

Compared with `Cn1c(C(=O)NC2CCCCCC2)cc2c(=O)n(C)c3ccccc3c21`, `COc1cc(C(=O)NC2CCN(C)CC2)ccc1Nc1ncc2c(n1)N(C1CCCCC1)CCC(=O)N2C` is 400-fold lower in AC26: 4470 nM for the first, 11.3 nM for the second.

First: O=C1c2ccccc2C(=O)N1Cc1cnc(N2CCN(c3ccccc3)CC2)s1
Second: COc1ccccc1N1CCN(c2ccc3c(c2)S(=O)(=O)c2cccc(C(=O)NCC4CC4)c2C3=O)CC1
The AC26 of the first is 1.7-fold higher: 7870 nM for the first, 4550 nM for the second.

First: CSc1ncnc2c1ncn2CCCN[C@H](C)c1cccc2ccccc12
Second: CC(NC(=O)c1cccc2ccccc12)c1ccc2c(c1)CCCC2 (stereo not given)
The AC26 of the first is 9.5-fold lower: 679 nM for the first, 6480 nM for the second.

First: CCOc1ccc2[nH]c(C(=O)N/N=C/c3cc(OC)c(OC)c(OC)c3)cc2c1
Second: COc1cccc(/C=N/NC(=O)c2cc3c(OC)c(OC)ccc3[nH]2)c1OC
The AC26 of the first is 4.4-fold lower: 1320 nM for the first, 5850 nM for the second.

Compared with `Cc1ccc(C(=O)Nc2ccc(NC(=O)c3cccs3)cc2)c(C)c1`, `Cc1ccc2nc(-c3ccncc3)cc(C(=O)Nc3ccncc3)c2c1` is 2.8-fold lower in AC26: 8550 nM for the first, 3050 nM for the second.

First: O=C(CCl)N1c2ccccc2Sc2c1ccc1ccccc21
Second: Oc1ccc(CCNc2c3ccccc3nc3ccccc23)cc1O
The AC26 of the first is 2.5-fold lower: 257 nM for the first, 638 nM for the second.

`CCC(CC)Nc1ccc(C(CC(N)=O)NC(=O)Cc2ccc(Br)cc2)cc1[N+](=O)[O-]` (stereo not given) and `O=[N+]([O-])c1ccc(Sc2cc[n+]([O-])c3ccccc23)c([N+](=O)[O-])c1` are within 1.5-fold of each other in AC26: 4130 nM for the first, 5960 nM for the second.

First: CN(C)S(=O)(=O)c1ccc(N2CCCC2)c(C(=O)Nc2nccs2)c1
Second: CN1C(=O)CSc2ccc(NC(=O)Nc3ccccn3)cc21
The AC26 of the first is 7.8-fold lower: 549 nM for the first, 4260 nM for the second.

`CCN(CC)c1ccc(/C=C2\C(=O)N(c3nnc(C)c(=O)[nH]3)N=C2C)cc1` and `CSc1nnc(-c2sccc2OCc2ccccc2)n1C` are within 1.5-fold of each other in AC26: 1420 nM for the first, 1950 nM for the second.

First: COc1ccc(NC(=O)C2(C)Cc3c(-c4cccc(C(N)=O)c4)ccnc3O2)cn1 (stereo not given)
Second: CN(C)C(=O)c1cccc(-c2cnc3c(NC=O)cc(-c4ccccc4Cl)cn23)c1
The AC26 of the first is 1.6-fold higher: 10700 nM for the first, 6820 nM for the second.

Compared with `COc1cccc(C(NC(C)=O)c2nc(-c3ccccc3C)cs2)c1` (stereo not given), `CC(=O)NC(c1cccc(F)c1)c1nc(-c2ccccc2C)cs1` (stereo not given) is 1.5-fold lower in AC26: 774 nM for the first, 502 nM for the second.

First: CC1CN(C(=O)c2ccc(COc3ccc4ccccc4c3)o2)CC(C)O1 (stereo not given)
Second: CCOC(=O)Nc1nc2ccc(Cn3cccc3)cc2[nH]1
The AC26 of the first is 17-fold higher: 11200 nM for the first, 674 nM for the second.
